# Values quoted from earlier work, collected in patent USRE45822E1, “Oral dosage form comprising a therapeutic agent and an adverse-effect agent” (Purdue Pharma L.P., priority 2001, dated 2015).
# Details: administered orally; retain much of their efficacy
row,SMILES,duration of action [h]
1,C[C@H]1[C@H]2Cc3ccc(O)cc3[C@]1(C)CCN2CC1CC1 [cyclazocine],~24
2,O=C1CC[C@@]2(O)[C@H]3Cc4ccc(O)c5c4[C@@]2(CCN3CC2CC2)[C@H]1O5 [naltrexone],~24
